Read-outs that look alike come from different tables or passages of the source.

Holding throughout (type): cell-based
Experiment [1] has as its system SARS-CoV-2 variant Beta. The experiment can be described thus: microbe, parasite or virus in culture. Particulars: for EC50: read-out: Antiviral Activity Against SARS-CoV-2 Variants in Vero EC50, Beta; for EC90: read-out: Antiviral Activity Against SARS-CoV-2 Variants in Vero EC90, Beta.
The subject of experiment [2] is SARS-CoV-2 Lineage A (Eng). As to the kind of experiment: Antiviral activity against SARS-CoV-2 Lineage A (Eng) in Calu3.
Experiment [3] relates to SARS-CoV-2 variant Gamma. As to the kind of experiment: microbe, parasite or virus in culture. As to conditions: for EC50: read-out: Antiviral Activity Against SARS-CoV-2 Variants in Vero EC50, Gamma; for EC90: read-out: Antiviral Activity Against SARS-CoV-2 Variants in Vero EC90, Gamma.
Experiment [4] has as its system SARS-CoV-2 Lineage A (Wa). The experiment can be described thus: Antiviral activity against SARS-CoV-2 Lineage A (Wa) in Calu3.
The subject of experiment [5] is SARS-CoV-2 variant Gamma. As to the kind of experiment: microbe, parasite or virus in culture.
The subject of another experiment is SARS-CoV-2 variant Delta. The experiment can be described thus: microbe, parasite or virus in culture.
Experiment [6] deals with SARS-CoV-2 Lineage A (Wa). As to the kind of experiment: Antiviral activity against SARS-CoV-2 Lineage A (Wa) in Vero. Particulars: read-out: Antiviral Activity Against SARS-CoV-2 Variants in Vero EC50, Lineage A (Wa).
The subject of experiment [7] is SARS-CoV-2 variant Alpha. The experiment can be described thus: microbe, parasite or virus in culture. Particulars: for EC50: read-out: Antiviral Activity Against SARS-CoV-2 Variants in Vero EC50, Alpha; for EC90: read-out: Antiviral Activity Against SARS-CoV-2 Variants in Vero EC90, Alpha.
Experiment [8] relates to SARS-CoV-2 variant Alpha. The experiment can be described thus: microbe, parasite or virus in culture.
In experiment [9] the test system is SARS-CoV-2 Lineage A (Eng). As to the kind of experiment: Antiviral activity against SARS-CoV-2 Lineage A (Eng) in Vero. As to conditions: for EC50: read-out: Antiviral Activity Against SARS-CoV-2 Variants in Vero EC50, Lineage A (Eng); for EC90: read-out: Antiviral Activity Against SARS-CoV-2 Variants in Vero EC90, Lineage A (Eng).
Experiment [10] deals with SARS-CoV-2 variant Beta. The experiment can be described thus: microbe, parasite or virus in culture. Particulars: Severe acute respiratory syndrome coronavirus 2, Calu-3, read-out: Antiviral Activity Against SARS-CoV-2 Variants in Calu3 EC50, Beta.
[11] abbreviates: Severe acute respiratory syndrome coronavirus 2, Beta, Vero.
The mark [12] stands for this setting: Severe acute respiratory syndrome coronavirus 2, Gamma, Vero.
The mark [13] stands for this setting: Severe acute respiratory syndrome coronavirus 2, Alpha, Vero.
Setting [14] is: Severe acute respiratory syndrome coronavirus 2, Lineage A (Eng), Vero.
Where [15] appears, read: Severe acute respiratory syndrome coronavirus 2, Vero.

As for `CCC(CC)COC(=O)[C@H](C)N[P@](=O)(OC[C@H]1O[C@@](C#N)(c2ccc3c(N)ncnn23)[C@H](O)[C@@H]1O)Oc1ccccc1` [Remdesivir, reference compound], the EC50 in the experiment with SARS-CoV-2 variant Beta [1] (setting [11]) worked out at 1100 nM; in experiment [2] (Severe acute respiratory syndrome coronavirus 2, Calu-3, Lineage A (Eng), Calu3, read-out: Antiviral Activity Against SARS-CoV-2 Variants in Calu3 EC50, Lineage A (Eng)), 20 nM; in the experiment on SARS-CoV-2 variant Gamma [3] (setting [12]), 300 nM; in experiment [4] (Severe acute respiratory syndrome coronavirus 2, Calu-3, Lineage A (Wa), Calu3, read-out: Antiviral Activity Against SARS-CoV-2 Variants in Calu3 EC50, Lineage A (Wa)), 100 nM; in the experiment with SARS-CoV-2 variant Gamma [5] (Severe acute respiratory syndrome coronavirus 2, Calu-3, Gamma, Calu3, read-out: Antiviral Activity Against SARS-CoV-2 Variants in Calu3 EC50, Gamma) it was 260 nM; in the experiment with SARS-CoV-2 variant Delta (Severe acute respiratory syndrome coronavirus 2, Calu-3, Delta, Calu3, read-out: Antiviral Activity Against SARS-CoV-2 Variants in Calu3 EC50, Delta) it was 300 nM. Also, the EC50 was determined as 200 nM in [6] (Severe acute respiratory syndrome coronavirus 2, Lineage A (Wa), Vero); 400 nM with SARS-CoV-2 variant Alpha [7] (setting [13]); 300 nM in the experiment on SARS-CoV-2 variant Alpha [8] (Severe acute respiratory syndrome coronavirus 2, Calu-3, Alpha, Calu3, read-out: Antiviral Activity Against SARS-CoV-2 Variants in Calu3 EC50, Alpha); 300 nM in experiment [9] (setting [14]). In addition, the EC90 with SARS-CoV-2 variant Beta [1] (setting [11]) worked out at 2200 nM; in experiment [2] (Severe acute respiratory syndrome coronavirus 2, Calu-3, Lineage A (Eng), Calu3, read-out: Antiviral Activity Against SARS-CoV-2 Variants in Calu3 EC90, Lineage A (Eng)), 300 nM; in the experiment on SARS-CoV-2 variant Gamma [3] (setting [12]), 2100 nM; in [4] (Severe acute respiratory syndrome coronavirus 2, Calu-3, Lineage A (Wa), Calu3, read-out: Antiviral Activity Against SARS-CoV-2 Variants in Calu3 EC90, Lineage A (Wa)) it was 400 nM; in the experiment on SARS-CoV-2 variant Gamma [5] (Severe acute respiratory syndrome coronavirus 2, Calu-3, Gamma, Calu3, read-out: Antiviral Activity Against SARS-CoV-2 Variants in Calu3 EC90, Gamma) it was 300 nM; in the experiment with SARS-CoV-2 variant Delta (Severe acute respiratory syndrome coronavirus 2, Calu-3, Delta, Calu3, read-out: Antiviral Activity Against SARS-CoV-2 Variants in Calu3 EC90, Delta), 2300 nM. Besides, the EC90 was found to be 1600 nM with SARS-CoV-2 variant Alpha [7] (setting [13]); 400 nM with SARS-CoV-2 variant Alpha [8] (Severe acute respiratory syndrome coronavirus 2, Calu-3, Alpha, Calu3, read-out: Antiviral Activity Against SARS-CoV-2 Variants in Calu3 EC90, Alpha); 2900 nM in [9] (setting [14]).

For the compound `O=c1ccn([C@@H]2S[C@H](CO)[C@@H](O)[C@H]2O)c(=O)[nH]1` [Compound 8, 1-((2R,3R,4S,5R)-3,4-dihydroxy-5-(hydroxymethyl)tetrahydrothiophen-2-yl)pyrimidine-2,4(1H,3H)-dione], the EC50 with SARS-CoV-2 variant Beta [1] (setting [15]) is 800 nM; with SARS-CoV-2 variant Gamma [3] (setting [15]), 200 nM; in the experiment with SARS-CoV-2 variant Beta [10], 1100 nM; in experiment [4] (Severe acute respiratory syndrome coronavirus 2, Calu-3, read-out: Antiviral Activity Against SARS-CoV-2 Variants in Calu3 EC50, Lineage A (Wa)) it was 100 nM; with SARS-CoV-2 variant Gamma [5] (Severe acute respiratory syndrome coronavirus 2, Calu-3, read-out: Antiviral Activity Against SARS-CoV-2 Variants in Calu3 EC50, Gamma), 40 nM; with SARS-CoV-2 variant Delta (Severe acute respiratory syndrome coronavirus 2, Calu-3, read-out: Antiviral Activity Against SARS-CoV-2 Variants in Calu3 EC50, Delta), 1800 nM. Also, the EC50 in experiment [6] (setting [15]) was found to be 800 nM; with SARS-CoV-2 variant Alpha [7] (setting [15]) it was 300 nM; in the experiment with SARS-CoV-2 variant Alpha [8] (Severe acute respiratory syndrome coronavirus 2, Calu-3, read-out: Antiviral Activity Against SARS-CoV-2 Variants in Calu3 EC50, Alpha) it was 300 nM; in experiment [9] (setting [15]), 200 nM. Also, the EC90 with SARS-CoV-2 variant Beta [1] (setting [15]) stood at 1000 nM; in experiment [2] (Severe acute respiratory syndrome coronavirus 2, Calu-3, read-out: Antiviral Activity Against SARS-CoV-2 Variants in Calu3 EC90, Lineage A (Eng)), 4500 nM; in the experiment with SARS-CoV-2 variant Gamma [3] (setting [15]), 300 nM; in experiment [4] (Severe acute respiratory syndrome coronavirus 2, Calu-3, read-out: Antiviral Activity Against SARS-CoV-2 Variants in Calu3 EC90, Lineage A (Wa)), 400 nM; in the experiment on SARS-CoV-2 variant Gamma [5] (Severe acute respiratory syndrome coronavirus 2, Calu-3, read-out: Antiviral Activity Against SARS-CoV-2 Variants in Calu3 EC90, Gamma), 100 nM; in the experiment with SARS-CoV-2 variant Delta (Severe acute respiratory syndrome coronavirus 2, Calu-3, read-out: Antiviral Activity Against SARS-CoV-2 Variants in Calu3 EC90, Delta), 3600 nM. For the same compound, the EC90 in the experiment with SARS-CoV-2 variant Alpha [7] (setting [15]) is 1400 nM; in experiment [9] (setting [15]) it was 400 nM.

For the origin of these results see patent US20240216413A1, “THIONUCLEOSIDES AS ANTIVIRAL AGENTS” (priority 2021, published 2024).
